Values after ≈ are worked out from the molar mass of the structure shown.
Experiments:
[1] = Effect of different auxiliaries on the solubility of HMLO active ingredient in water at 293° K; format: physicochemical; settings: for solubility: water, 293° K
Protocol: Effect of Different Auxiliaries on the Solubility of HMLO Active Ingredient in Water at 293° K.

[2] = In vivo absorption of HMLO active ingredient by rabbits after oral administration as a function of the auxiliaries used; settings: 12 mg/kg
From the text: In Vivo Absorption of HMLO Active Ingredient by the Rabbits After Oral Administration as a Function of the Auxiliaries Used.

[3] = Absorption of HMLO in vitro and in vivo in the presence of bile acids; settings: compared with pure active ingredient and known preparations
From the text: This improvement is observed also in comparison with the oily preparation, although the same mechanism for affecting the absorption obviously forms the basis for this preparation.

[4] = cited from earlier work

Solubility in water ([1]; pure HMLO, no auxiliary): insoluble
solubility ([1]; auxiliary Tween (R) 80 0.75%): 130 µg/mL (≈ 426 µM)
solubility ([1]; auxiliary benzalkonium bromide 1.00%): 24 µg/mL (≈ 78.6 µM)
solubility ([1]; auxiliary polyethylene glycol 6500 10.00%): 1 µg/mL (≈ 3.27 µM)
solubility ([1]; auxiliary propylene glycol 1.00%): 2.3 µg/mL (≈ 7.53 µM)
solubility ([1]; auxiliary sodium desoxycholate 0.75%): 2750 µg/mL (≈ 9000 µM)
Absorption ([2]; without auxiliaries): not absorbed to a measurable extent
Structure (SMILES): CCCCCCCCCCCC(=NO)c1cc(C)ccc1O [HMLO, 2-hydroxy-5-methyllaurophenoxime]
Absorption ([2]; bile acids as auxiliary, compared with oil): distinctly exceeded by the use of bile acids
Absorption ([2]; oil as auxiliary): clearly affected by the use of oil as auxiliary
Absorption [3]: improved clearly in vitro and in vivo in the presence of bile acids
Side effects on long-term treatment ([4]; oily preparation): occurrence of diarrhea
Bioavailability ([4]; solutions and emulsions containing oils): the bioavailability can be increased

— US5079265A, “Composition and methods for providing optimum bioavailability of the active ingredient 2-hydroxy-5-methyllaurophenoxime (HMLO)” (VEB Fahlberg-List Chemische und pharmazeutische Fabriken, priority 1989, dated 1992)
